Test results as given in US5597848A, “Benzenesulfonamide derivatives and use thereof” (Hokuriku Seiyaku Co., Ltd., priority 1992, dated 1997).

Experiments:
leukotriene D4 = molecular target: T1, leukotriene D4 (Cavia porcellus, UniProt Q2NNR5); experiment: Leukotriene D4 antagonistic effect in isolated trachea (Schild method); set-up: species or system male Hartley guinea-pigs; conditions: isolated trachea, 30 min treatment, indomethacin 3×10^-6 M, Krebs 37° C.
T1 construct: tracheas were isolated from male Hartley guinea-pigs; from tissue; host or cells: isolated trachea of male Hartley guinea-pigs
T1 sequence (Q2NNR5 1-340): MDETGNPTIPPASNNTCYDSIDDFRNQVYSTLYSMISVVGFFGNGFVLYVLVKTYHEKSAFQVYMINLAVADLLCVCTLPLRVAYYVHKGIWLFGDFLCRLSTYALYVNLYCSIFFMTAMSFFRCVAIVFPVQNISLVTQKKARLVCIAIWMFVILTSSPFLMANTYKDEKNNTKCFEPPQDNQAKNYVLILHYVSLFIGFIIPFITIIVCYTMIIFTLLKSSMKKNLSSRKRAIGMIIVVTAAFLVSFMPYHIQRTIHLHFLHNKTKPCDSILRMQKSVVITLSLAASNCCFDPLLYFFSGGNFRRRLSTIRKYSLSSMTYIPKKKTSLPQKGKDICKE
Method: According to an ordinary method, tracheas were isolated from male Hartley guinea-pigs, and ring specimens of approximately […] length were prepared. These specimens were suspended isotonically in organ baths that contained Krebs solution at 37° C. under a resting tension of 0.5 g. After repeated contractions with acetylcholine (1×10^-6 M; Ovisot for injection, Daiichi Seiyaku), and the first concentration-response curves was obtained by cummulative applications of leukotriene D4 (ULTRA FINE) into the organ baths. After treatments with test compounds at adequate concentrations for 30 min, the second concentration-response curves were obtained in the same manner as first applications. pKB values were calculated using these two concentration-response curves according to the method of Schild [Pharmacological Review, Vol. 9, 242 (1957)]. Indomethacin (3×10^-6 M; Sigma) was added beforehand to the organ bath to eliminate possible affections by thromboxane A2 and prostaglandin produced by stimulus of leukotriene D4 [Japan J. Pharmacol., Vol. 60, 227 (1992)].

thromboxane A2 receptor = molecular target: T2, thromboxane A2 receptor (Cavia porcellus, UniProt A0A286Y4I8); experiment: Thromboxane A2 antagonistic effect: inhibition of U-46619-induced platelet aggregation in guinea-pig platelet-rich plasma; assay type: cell-based, guinea-pigs; conditions: guinea-pig PRP, U-46619 2 μg/ml, 2 min at 37° C.; read-out: IC50 (50% inhibition against platelet aggregation)
T2 construct: platelet-rich plasma; endogenous in cells; host or cells: guinea-pig platelets in platelet-rich plasma
T2 sequence (A0A286Y4I8 1-347): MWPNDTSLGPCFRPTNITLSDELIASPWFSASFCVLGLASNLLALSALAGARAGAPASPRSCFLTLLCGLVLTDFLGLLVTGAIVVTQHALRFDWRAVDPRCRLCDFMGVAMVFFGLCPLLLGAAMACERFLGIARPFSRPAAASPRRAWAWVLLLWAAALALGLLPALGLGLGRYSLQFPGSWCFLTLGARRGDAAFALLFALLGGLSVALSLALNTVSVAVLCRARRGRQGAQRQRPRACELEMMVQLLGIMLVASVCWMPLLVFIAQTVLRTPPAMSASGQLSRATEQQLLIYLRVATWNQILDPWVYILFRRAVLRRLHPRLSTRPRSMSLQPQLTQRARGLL
Method: Blood was collected from the abdominal aorta of guinea-pigs (about 400 g wt.) into 1/10 volume of 3.8% sodium citrate, and then platelet-rich plasma (PRP: 6×10^5 cells/μl) was obtained by centrifugation. A cuvette was filled with PRP 190 μl and set in an aggregometer (Hema Tracer I; Niko Bioscience). Incubation was carried out for 2 min. at 37° C. after the addition of 1 μl of dimethyl sulfoxide solution of test compounds. To the PRP, 10 μl of U-46619 (Cayman), a thromboxane A2 /prostaglandin H2 receptor agonist and potent platelet aggregation inducer, was added at the final concentration of 2 μg/ml, and platelet aggregation was measured by an aggregometer.

Row | Structure (SMILES) | Kb (leukotriene D4) [nM] | IC50 (thromboxane A2 receptor) [nM]
1 | C[C@H]1CC[C@H](C(NS(=O)(=O)c2ccc(Cl)cc2)c2ccc(CCCC(=O)O)cc2)CC1 (relative stereo) [Example 76, trans-4-[4-[(4-Chlorophenylsulfonylamino)(4-methylcyclohexyl)methyl]phenyl]butyric Acid] | 200 | –
2 | CCCCC[C@H]1CC[C@H](C(NS(=O)(=O)c2ccc(Cl)cc2)c2ccc(CCCC(=O)O)cc2)CC1 (relative stereo) [Example 77, trans-4-[4-[(4-Chlorophenylsulfonylamino)(4-pentylcyclohexyl)methyl]phenyl]butyric Acid] | 631 | –
3 | CCC(NS(=O)(=O)c1ccc(Cl)cc1)c1ccc(CCCC(=O)O)cc1 (centres unmarked) [Example 64, 4-[4-[1-(4-Chlorophenylsulfonylamino)propyl]phenyl]butyric Acid] | – | 160
4 | CC(C)CC(NS(=O)(=O)c1ccc(Cl)cc1)c1ccc(CCCC(=O)O)cc1 (centres unmarked) [Example 70, 4-[4-[1-(4-Chlorophenylsulfonylamino)-3-methylbutyl]phenyl]butyric Acid] | – | 320
5 | CC(C)(C)CC(NS(=O)(=O)c1ccc(Cl)cc1)c1ccc(CCCC(=O)O)cc1 (centres unmarked) [Example 72, 4-[4-[1-(4-Chlorophenylsulfonylamino)-3,3-dimethylbutyl]phenyl]butyric Acid] | – | 320
6 | O=C(O)CCCc1ccc(C(NS(=O)(=O)c2ccc(Cl)cc2)C2CCCCCC2)cc1 (centres unmarked) [Example 75, 4-[4-[(4-Chlorophenylsulfonylamino)cycloheptylmethyl]phenyl]butyric Acid] | 398 | 320
7 | O=C(O)CCCc1ccc(C(CC2CCCC2)NS(=O)(=O)c2ccc(Cl)cc2)cc1 (centres unmarked) [Example 78, 4-[4-[1-(4-Chlorophenylsulfonylamino)-2-cyclopentylethyl]phenyl]butyric Acid] | 1000 | 320
8 | O=C(O)CCCc1ccc(C(CCCCC2CCCCC2)NS(=O)(=O)c2ccc(Cl)cc2)cc1 (centres unmarked) [Example 82, 4-[4-[1-(4-Chlorophenylsulfonylamino)-5-cyclohexylpentyl]phenyl]butyric Acid] | – | 400
9 | O=C(O)CCCc1ccc(C(CC23CC4CC(CC(C4)C2)C3)NS(=O)(=O)c2ccc(Cl)cc2)cc1 (centres unmarked) [Example 84, 4-[4-[2-(1-Adamantyl)-1-(4-chlorophenylsulfonylamino)ethyl]phenyl]butyric Acid] | 200 | –
10 | O=C(O)CCCc1ccc(C(CC2CC3CCC2C3)NS(=O)(=O)c2ccc(Cl)cc2)cc1 (centres unmarked) [Example 85, 4-[4-[1-(4-Chlorophenylsulfonylamino)-2-(2-norbornyl)ethyl]phenyl]butyric Acid] | 158 | 400
11 | O=C(O)CCc1ccc(C(Cc2ccccc2)NS(=O)(=O)c2ccc(Cl)cc2)cc1 (centres unmarked) [Example 86, 3-[4-[1-(4-Chlorophenylsulfonylamino)-2-phenylethyl]phenyl]propionic Acid] | – | 250
12 | O=C(O)CCCc1ccc(C(Cc2ccccc2)NS(=O)(=O)c2ccccc2)cc1 (centres unmarked) [Example 87, 4-[4-[2-phenyl-1-(phenylsulfonylamino)ethyl]phenyl]butyric Acid] | – | 320
13 | O=C(O)CCCc1ccc(C(Cc2ccccc2)NS(=O)(=O)c2ccc(F)cc2)cc1 (centres unmarked) [Example 88, 4-[4-[1-(4-Fluorophenylsulfonylamino)-2-phenylethyl]phenyl]butyric Acid] | – | 320
14 | O=C(O)CCCc1ccc(C(Cc2ccccc2)NS(=O)(=O)c2ccc(Br)cc2)cc1 (centres unmarked) [Example 89, 4-[4-[1-(4-Bromophenylsulfonylamino)-2-phenylethyl]phenyl]butyric Acid] | – | 32
15 | Cc1ccc(S(=O)(=O)NC(Cc2ccccc2)c2ccc(CCCC(=O)O)cc2)cc1 (centres unmarked) [Example 90, 4-[4-[1-(p-Tolylsulfonylamino)-2-phenylethyl]phenyl]butyric Acid] | – | 320
16 | COc1ccc(S(=O)(=O)NC(Cc2ccccc2)c2ccc(CCCC(=O)O)cc2)cc1 (centres unmarked) [Example 91, 4-[4-[1-(4-Methoxyphenylsulfonylamino)-2-phenylethyl]phenyl]butyric Acid] | – | 320
17 | O=C(O)CCCCc1ccc(C(Cc2ccccc2)NS(=O)(=O)c2ccc(Cl)cc2)cc1 (centres unmarked) [Example 92, 5-[4-[1-(4-Chlorophenylsulfonylamino)-2-phenylethyl]phenyl]valeric Acid] | – | 320
18 | O=C(O)CCCc1ccc(C(Cc2ccccc2F)NS(=O)(=O)c2ccc(Cl)cc2)cc1 (centres unmarked) [Example 93, 4-[4-[1-(4-Chlorophenylsulfonylamino)-2-(2-fluorophenyl)ethyl]phenyl]butyric Acid] | – | 320
19 | O=C(O)CCCc1ccc(C(Cc2cccc(F)c2)NS(=O)(=O)c2ccc(Cl)cc2)cc1 (centres unmarked) [Example 94, 4-[4-[1-(4-Chlorophenylsulfonylamino)-2-(3-fluorophenyl)ethyl]phenyl]butyric Acid] | – | 63
20 | O=C(O)CCCc1ccc(C(Cc2ccc(F)cc2)NS(=O)(=O)c2ccc(Cl)cc2)cc1 (centres unmarked) [Example 95, 4-[4-[1-(4-Chlorophenylsulfonylamino)-2-(4-fluorophenyl)ethyl]phenyl]butyric Acid] | 501 | 160
21 | CCCCCCCC(NS(=O)(=O)c1ccc(Cl)cc1)c1ccc(CCCC(=O)O)cc1 (centres unmarked) [Example 100, 4-[4-[1-(4-Chlorophenylsulfonylamino)octyl]phenyl]butyric Acid] | – | 790
22 | O=C(O)CCCCc1ccc(C(CC2CCCCC2)NS(=O)(=O)c2ccc(Cl)cc2)cc1 (centres unmarked) [Example 113, 5-[4-[1-(4-Chlorophenylsulfonylamino)-2-cyclohexylethyl]phenyl]valeric Acid] | 39.8 | 400
23 | O=C(O)CCCc1ccc(C(CCCc2ccccc2)NS(=O)(=O)c2ccc(Cl)cc2)cc1 (centres unmarked) [Example 114, 4-[4-[1-(4-Chlorophenylsulfonylamino)-4-phenylbutyl]phenyl]butyric Acid] | – | 320
24 | O=C(O)CCCc1ccc(C(CCCCc2ccccc2)NS(=O)(=O)c2ccc(Cl)cc2)cc1 (centres unmarked) [Example 115, 4-[4-[1-(4-Chlorophenylsulfonylamino)-5-phenylpentyl]phenyl]-butyric Acid] | – | 320
25 | O=C(O)CCCc1ccc(C(CCCCCc2ccccc2)NS(=O)(=O)c2ccc(Cl)cc2)cc1 (centres unmarked) [Example 116, 4-[4-[1-(4-Chlorophenylsulfonylamino)-6-phenylhexyl]phenyl]butyric Acid] | 200 | 500
26 | CCCCc1ccc(CCC(NS(=O)(=O)c2ccc(Cl)cc2)c2ccc(CCCC(=O)O)cc2)cc1 (centres unmarked) [Example 117, 4-[4-[3-(4-Butylphenyl)-1-(4-chlorophenylsulfonylamino)propyl]phenyl]butyric Acid] | 251 | –
